“And” between values parts separate entries of the source, which are not always exact repeats. Identical values can stand only once. Counter-ions that a name gives are not always drawn.
Experiments:
[1] = system: IL-17 production by CD4 T cells; experiment: Human Th17 assay (IL-17 production by CD4 T cells under Th17 differentiation conditions); format: cell-based; conditions: IL-17 in supernatant after 3 days
Procedure: The human Th17 assay tests the effect of RORγt modulatory compounds on IL-17 production by CD4 T cells under conditions which favor Th17 differentiation. Total CD4^+ T cells were isolated from the peripheral blood mononuclear cells (PBMC) of healthy donors using a CD4^+ T cell isolation kit II, following the manufacturer's instructions (Miltenyi Biotec). […] 50 μL of compound at titrated concentrations in DMSO were added into each well at final DMSO concentration at 0.2%. Cells were incubated for 1 hour, then 50 μL of Th17 cell differentiation medium was added to each well. The final concentrations of antibodies and cytokines (R&D Systems) in differentiation medium were: 3×10^6/mL anti-CD3/CD28 beads (prepared using human T cell activation/expansion kit, Miltenyi Biotec), 10 μg/mL anti-IL4, 10 μg/mL anti-IFNγ, 10 ng/mL IL113, 10 ng/mL IL23, 50 ng/mL IL6, 3 ng/mL TGFβ and 20 U/mL IL2. Cells were cultured at 37° C. and 5% CO2 for 3 days. Supernatants were collected and the accumulated IL-17 in culture was measured by using MULTI-SPOT® Cytokine Plate following manufacture's instruction (Meso Scale Discovery). The plate was read using Sector Imager 6000, and IL-17 concentration was extrapolated from the standard curve. The IC50s were determined by GraphPad.

human RORγt LBD = target: T1, human RORγt LBD (Homo sapiens, UniProt P51449); experiment: RORγt reporter assay (GAL4-RORγt LBD luciferase in HEK293T cells); format: cell-based; conditions: for IC50: HEK293T cells, 24 hours compound treatment; for inhibition at 6 µM: HEK-293T, read-out: RORγt reporter Assay, % inhibition @ 6 μM, HEK293T cells, 6 μM compound
T1 construct: expressed in transfected cells
T1 sequence (P51449 258-518): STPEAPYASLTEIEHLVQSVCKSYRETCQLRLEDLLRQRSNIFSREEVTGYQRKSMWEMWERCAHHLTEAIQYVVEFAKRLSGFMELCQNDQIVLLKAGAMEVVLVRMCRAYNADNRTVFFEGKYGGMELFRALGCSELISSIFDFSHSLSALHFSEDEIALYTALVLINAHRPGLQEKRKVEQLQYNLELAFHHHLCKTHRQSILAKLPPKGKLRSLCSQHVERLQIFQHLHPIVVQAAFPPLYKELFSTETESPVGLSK
Outline: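 Read-out is the firefly-to-renilla luciferase ratio versus compound concentration, after 24 h compound exposure of cells in phenol-red-free DMEM/5% lipid-reduced FCS. Cells were HEK293T bulk-transfected with a GAL4-responsive firefly reporter (pGL4.31) and GAL4 DBD–wild-type human RORγt LBD fusion (pBIND, renilla as transfection/viability control).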

[2] = target: T2, human RORγt ligand binding domain (RORγt LBD) (Homo sapiens, UniProt P51449); experiment: RORγt ThermoFluor assay (thermal shift, ligand binding affinity); conditions: estimated from concentration response of thermal shift
T2 construct: His-tag (N); TurboTEV protease cleavage site (ENLYFQG) (N); made in house; host or cells: E. coli (pHIS1, modified pET vector)
T2 sequence (P51449 with tags, fused parts or gaps): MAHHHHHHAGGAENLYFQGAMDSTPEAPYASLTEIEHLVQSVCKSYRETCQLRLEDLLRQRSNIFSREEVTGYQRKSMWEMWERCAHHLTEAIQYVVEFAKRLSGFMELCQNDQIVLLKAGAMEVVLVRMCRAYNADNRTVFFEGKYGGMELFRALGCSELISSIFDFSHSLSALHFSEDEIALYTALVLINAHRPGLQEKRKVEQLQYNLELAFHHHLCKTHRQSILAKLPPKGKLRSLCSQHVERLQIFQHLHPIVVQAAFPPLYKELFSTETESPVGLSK
Outline: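 Thermal shift of 0.065 mg/mL RORγt with 60 μM 1,8-ANS in 100 mM Hepes pH 7.0, 10 mM NaCl, 2.5 mM GSH, 0.002% Tween-20. Compounds in 1:2 series from 10 mM DMSO stock. Dye fluorescence (500 nm emission) tracked versus temperature; ΔTm used to derive KD.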

Row | SMILES | IC50 ([1]; Homo sapiens, CD4+ T, 72 h) [µM] | IC50 (human RORγt LBD) | inhibition at 6 µM (human RORγt LBD) [%] | Kd [2] [µM] | IC50 [1] [µM]
1 | OC(c1ccccc1)(c1cccnc1)c1ccc2nc(Cl)c(-c3ccccc3Cl)c(Cl)c2c1 (centres unmarked) [Example 6, (2,4-Dichloro-3-(2-chlorophenyl)quinolin-6-yl)(phenyl)(pyridin-3-yl)methanol] | ~6 | 0.24 µM | 90 | 0.074 | –
2 | COc1ccc(C(O)(c2ccc3nc(Cl)c(-c4ccccc4)c(Cl)c3c2)c2cncn2C)cn1 (centres unmarked) [Example 10, (2,4-Dichloro-3-phenylquinolin-6-yl)(6-methoxypyridin-3-yl)(1-methyl-1H-imidazol-5-yl)methanol•TFA] | 0.59 | 0.15 µM | 98 | 0.029 | –
3 | OC(c1ccc(Cl)cc1)(c1cccnc1)c1ccc2nc(Cl)c(-c3ccccc3)c(Cl)c2c1 (centres unmarked) [Example 17, (4-Chlorophenyl)(2,4-dichloro-3-phenylquinolin-6-yl)(pyridin-3-yl)methanol] | 0.94 | 0.27 µM | 102 | 0.21 | –
4 | OC(c1ccncc1)(c1ccncc1)c1ccc2nc(Cl)c(-c3ccccc3)c(Cl)c2c1 [Example 21, (2,4-Dichloro-3-phenylquinolin-6-yl)(dipyridin-4-yl)methanol•TFA] | ~0.9 | 0.86 µM | 91 | 0.12 | –
5 | OC(c1cccnc1)(c1ccc2nc(Cl)c(-c3ccccc3)c(Cl)c2c1)c1ccccn1 (centres unmarked) [Example 26, (2,4-Dichloro-3-phenylquinolin-6-yl)(pyridin-2-yl)pyridin-3-ylmethanol•TFA] | 2.8 | 0.7 µM | 100 | 1.3 | –
6 | Oc1ccc(C(O)(c2cccnc2)c2ccc3nc(Cl)c(-c4ccccc4)c(Cl)c3c2)cc1 (centres unmarked) [Example 29, 4-[(2,4-Dichloro-3-phenylquinolin-6-yl)(hydroxy)pyridin-3-ylmethyl]phenol•HCl] | 2.8 | 0.26 µM | 95 | 0.18 | –
7 | CCc1nc2ccc(C(O)(c3ccc(F)cc3)c3cccnc3)cc2c(Cl)c1-c1ccccc1 (centres unmarked) [Example 30, (4-Chloro-2-ethyl-3-phenylquinolin-6-yl)(4-fluorophenyl)pyridin-3-ylmethanol•TFA] | ~1 | ~0.3 µM | 93 | 0.033 | –
8 | CN(C)c1nc2ccc(C(O)(c3ccc(Cl)cc3)c3cccnc3)cc2c(Cl)c1-c1ccccc1 (centres unmarked) [Example 32, [4-Chloro-2-(dimethylamino)-3-phenylquinolin-6-yl](4-chlorophenyl)pyridin-3-ylmethanol•TFA] | 0.86 | 0.094 µM | 97 | 0.33 | –
9 | CN(C)c1c(-c2ccccc2)c(Cl)nc2ccc(C(O)(c3cccnc3)c3cncn3C)cc12 (centres unmarked) [Example 35, [2-Chloro-4-(dimethylamino)-3-phenylquinolin-6-yl](1-methyl-1H-imidazol-5-yl)pyridin-3-ylmethanol•TFA] | 0.77 | 0.34 µM | 97 | 0.33 | –
10 | CN(C)c1nc2ccc(C(O)(c3ccccn3)c3cncn3C)cc2c(Cl)c1-c1ccccc1 (centres unmarked) [Example 36, [4-Chloro-2-(dimethylamino)-3-phenylquinolin-6-yl](1-methyl-1H-imidazol-5-yl)pyridin-2-ylmethanol•TFA] | 1.6 | 0.29 µM | 98 | 2 | –
11 | CN(C)c1nc2ccc(C(O)(c3ccncc3)c3ccncc3)cc2c(Cl)c1-c1ccccc1 [Example 37, [4-Chloro-2-(dimethylamino)-3-phenylquinolin-6-yl](dipyridin-4-yl)methanol•TFA] | ~1 | 0.19 µM | 91 | 0.2 | –
12 | CN(C)c1nc2ccc(C(O)(c3cccnc3)c3ccccc3Cl)cc2c(Cl)c1-c1ccccc1 (centres unmarked) [Example 44, [4-Chloro-2-(dimethylamino)-3-phenylquinolin-6-yl](2-chlorophenyl)pyridin-3-ylmethanol•TFA] | 0.55 | 0.17 µM | 97 | 0.33 | –

Now those with a lower IC50 ([1]; Homo sapiens, CD4+ T, 72 h), led by results:

Row | IC50 ([1]; Homo sapiens, CD4+ T, 72 h) [µM] | IC50 (human RORγt LBD) | inhibition at 6 µM (human RORγt LBD) [%] | Kd [2] [µM] | IC50 [1] [µM] | SMILES
13 | 0.33 | ~0.1 µM | 103 | 0.022 | – | Cn1cncc1C(O)(c1ccc(F)nc1)c1ccc2nc(Cl)c(-c3ccccc3)c(Cl)c2c1 (centres unmarked) [Example 12, (2,4-Dichloro-3-phenylquinolin-6-yl)(6-fluoropyridin-3-yl)(1-methyl-1H-imidazol-5-yl)methanol•TFA]
14 | 0.53 | 0.085 µM | 106 | 0.015 | – | Cn1cncc1C(O)(c1ccc(Cl)nc1)c1ccc2nc(Cl)c(-c3ccccc3)c(Cl)c2c1 (centres unmarked) [Example 13]
15 | 0.52 | 0.33 µM | 104 | 0.13 | – | Cn1cncc1C(O)(c1ccncc1)c1ccc2nc(N3CCOCC3)c(-c3ccccc3)c(Cl)c2c1 (centres unmarked) [Example 20, (4-Chloro-2-morpholin-4-yl-3-phenylquinolin-6-yl)(1-methyl-1H-imidazol-5-yl)pyridin-4-ylmethanol•TFA]
16 | 0.44 | 0.22 µM | 104 | 0.075 | – | OC(c1ccc(F)cc1)(c1cccnc1)c1ccc2nc(Cl)c(-c3ccccc3)c(Cl)c2c1 (centres unmarked) [Example 22, (2,4-Dichloro-3-phenylquinolin-6-yl)(4-fluorophenyl)pyridin-3-ylmethanol]
17 | 0.32 | 0.079 µM | 104 | 0.024 | ~0.2 | OC(c1cccnc1)(c1cccnc1)c1ccc2nc(Cl)c(-c3ccccc3)c(Cl)c2c1 [Example 24, (2,4-Dichloro-3-phenylquinolin-6-yl)(dipyridin-3-yl)methanol•TFA]
18 | 0.34 | 0.094 µM and ~0.09 µM | 99 | 0.065 | – | OC(c1cccnc1)(c1cccc(Cl)c1)c1ccc2nc(Cl)c(-c3ccccc3)c(Cl)c2c1 (centres unmarked) [Example 25, (3-Chlorophenyl)(2,4-dichloro-3-phenylquinolin-6-yl)(pyridin-3-yl)methanol]
19 | 0.14 | 0.047 µM and < 0.05 µM | 100 | 0.033 | – | CN(C)c1nc2ccc(C(O)(c3cccnc3)c3cncn3C)cc2c(Cl)c1-c1ccccc1 (centres unmarked) [Example 34, [4-Chloro-2-(dimethylamino)-3-phenylquinolin-6-yl](1-methyl-1H-imidazol-5-yl)pyridin-3-ylmethanol•TFA]
20 | 0.27 | 0.11 µM and < 0.05 µM | 98 | 0.037 | – | CN(C)c1nc2ccc(C(O)(c3ccc(F)cc3)c3cccnc3)cc2c(Cl)c1-c1ccccc1 (centres unmarked) [Example 38, [4-Chloro-2-(dimethylamino)-3-phenylquinolin-6-yl](4-fluorophenyl)pyridin-3-ylmethanol•TFA]
21 | 0.056 | 0.047 µM and < 0.05 µM | 100 | 0.018 | – | CN(C)c1nc2ccc(C(O)(c3cccnc3)c3cccnc3)cc2c(Cl)c1-c1ccccc1 [Example 40, [4-Chloro-2-(dimethylamino)-3-phenylquinolin-6-yl](dipyridin-3-yl)methanol•TFA]
22 | 0.2 | 0.11 µM and ~0.1 µM | 98 | 0.023 | – | CN(C)c1nc2ccc(C(O)(c3cccnc3)c3cccc(Cl)c3)cc2c(Cl)c1-c1ccccc1 (centres unmarked) [Example 41, [4-Chloro-2-(dimethylamino)-3-phenylquinolin-6-yl](3-chlorophenyl)pyridin-3-ylmethanol•TFA]

Source: patent US9309222B2, “Phenyl linked quinolinyl modulators of RORγt” (Janssen Pharmaceutica NV, priority 2012, dated 2016)
